# Reference: patent publication US20100215618A1, “NOVEL COMPOUNDS - 644” (Arrow Therapeutics Limited, priority 2009, published 2010)
# Like-named read-outs stand apart in the source and are kept apart here.
# What was measured:
# [1] = tested on: HCV replicon cells Huh 9B (genotype 1b); experiment: 1b Replicon Assay (luciferase readout); type: cell-based; conditions: Hepatitis C virus, Huh 9B replicon cells, 72 h, luciferase activity
# [2] = tested on: HCV replicon cells Huh 9B; type: cell-based; conditions: Huh 9B replicon cells, 72 h, methylene blue, total cell area reduced by 50%
# Method: HCV replicon cells Huh 9B (ReBlikon), containing the firefly luciferase-ubiquitin-neomycin phosphotransferase fusion protein and EMCV-IRES driven HCV polyprotein with cell culture adaptive mutations.
# Replicon cells were trypsinised and counted. Cells were diluted to 100,000 cells/ml and 100 μl used to seed one opaque white 96-well plate (for the replicon assay) and one flat-bottomed clear plate (for the tox assay) for every five compounds to be tested for IC50. Wells G12 and H12 were left empty in the clear plate as the blank. Plates were then incubated at 37° C./5% CO2 for 24 h.
# On the following day compound dilutions were prepared in medium at twice their desired final concentration in a clear round bottomed plate. All dilutions have a final DMSO concentration of 1%.
# Controls and compounds were transferred from the dilution plates to the assay plates (containing the cells) at 100 μl/well in duplicate wells.
# Exception: no compound was added to wells A1 and A2 of either plate and 100 μl of 1% DMSO was added to these instead. Plates were then incubated at 37° C./5% CO2 for 72 h.
# The clear plate was stained with 100 μA 0.5% methylene blue in 50% ethanol at room temperature for 1 h, followed by solvation of the absorbed methylene blue in 100 μl per well of 1% lauroylsarcosine. Absorbance of the plate was measured on a microplate spectrophotometer (Molecular Devices) and the absorbance for each concentration of compound expressed as a proportion of the relative DMSO control. The TD50, the is concentration of drug required to reduce the total cell area by 50% relative to the DMSO controls, was calculated by plotting the absorbance at 620 nm after background substraction against drug concentration.
# [3] = in vitro; type: in vitro ADME, Canine; conditions: dog, MDCK
# Method: Cells used: MDCK (Madin-Darby Canine Kidney) cells, ATCC collection # CCL-34, are used to model the intestinal barrier. Cell culture conditions: cells were cultured at 37° C. in a 5% CO2 environment and split twice a week on seeding at 4×10^5 cells/flask (75 cm^2) on day 1 and 2×10^5 cells/flask on day 4. The culture medium consisted of MEM+Earle's-L Glutamine (Gibco #21090-022) supplemented with 10% Australian Fetal Calf Serum (Sigma #F6178), 2 mM L-Glutamine (Gibco #25030-024) and 1× Non Essential Amino Acids (Gibco #11140-035)
# On day 1, a 24-well plate (Sarstedt, #83.1836.300) was filled with individual 3 lam pore membrane inserts (Millipore, #PITP 012 50). Each plate allows the testing of a cocktail of 3 control compounds and 11 test compounds in duplicate. The wells (outside the inserts) were filled with 500 μl of culture medium.
# A flask of cells was trypsinised and a cell count carried out. Cells were diluted to 1.2×10^5 cells/ml (1×10^5 cells/cm^2) and 500 μl dispensed in each insert on the 24-well plate. The plate was incubated at 37° C. in a 5% CO2 environment for 48 hours.
# On day 3, the culture medium was removed from the wells, then the inserts and is replaced with fresh culture medium in the wells, then the inserts (500111 per well and insert) The plate was incubated at 37° C. in a 5% CO2 environment for 24 hours.
# On day 4, the controls cocktail and test compounds solutions were made up in HBSS buffer (Hank's Balanced Salt Solution, Gibco #14025-050) at 1011M. The final controls and test compounds concentration in the assay was 10 μM, and DMSO concentration maintained at 0.1% (0.3% for the controls cocktail). The controls cocktail was made up of Atenolol (Sigma # A-7655), Dexamethasone (Sigma #D-1756) and Propranolol (Sigma # P-0884).
# A 24-well plate was filled with 500 μl of HBSS buffer per well (assay plate) The culture medium was removed from the wells and inserts. The inserts were washed three times with approximately 500 μl of HBSS buffer. The inserts were transferred to the assay plate. Controls cocktail and test compounds solutions were dispensed inside the inserts (500 μl per insert), in duplicates. The assay plate was incubated at 37° C. in a 5% CO2 environment for 2 hours.
# After 2 hours, the inserts were removed from the assay plate and transferred into a new 24-well plate (wash plate) The assay plate containing the receiver solutions was left aside for later sampling. To measure the mass balance, 150 μl were sampled from each insert (donor solutions) and dispensed into 150 μl of HPLC-grade Acetonitrile (Fisher Scientific) containing an internal standard and 0.05% formic acid.
# The donor solutions were aspirated and discarded from each insert, and the inserts washed once with approximately 500 μl of HBSS buffer. A 24-well plate was filled with 500 μl of HBSS buffer per well (monolayer integrity plate) A Lucifer Yellow (Sigma #L0144) solution was made up at 1001.1M in HBSS buffer. The empty inserts were transferred into the monolayer integrity plate and filled with 500 μl of the Lucifer Yellow solution to determine the cell monolayers integrity and leftover of the solution was kept in a fridge. The plate was incubated at 37° C. in a 5% CO2 environment for 2 hours.
# In the meantime, 150 μl were sampled from the assay plate (receiver solutions) and dispensed into 150 μl of HPLC-grade Acetonitrile containing an internal standard and 0.05% formic acid. A calibration curve was made for each mix of compounds (as appropriate depending on compounds molecular weights) A 10 μM mix of compounds in HBSS buffer was diluted 1:1 in HPLC-grade Acetonitrile containing an internal standard and 0.05% formic acid. A 1:1 mix of HBSS buffer and HPLC-grade Acetonitrile containing an internal standard and 0.05% formic acid was made up and used to make up the calibration curve (2 fold dilutions), with concentrations ranging from 10 μM to 0.078 μM. […]
# [4] = tested on: HCV genotype 1a replicon cells Htat2ANeo; experiment: 1a Replicon Assay (cell-based anti-NS5a ELISA); conditions: Hepatitis C virus, 72 h
# Procedure, shortened: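 HCV 1a Htat2ANeo replicon cells (Et2AN control cells) exposed to compound for 72 h at 37° C without G418/blasticidin. NS5a quantified by cell-based ELISA (anti-NS5a, HRP/OPD, A490); IC50 from percentage reduction versus untreated control. Cytotoxicity TD50 by Cell Titre Blue fluorescence (ex 570/em 590 nm) versus DMSO controls.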
# [5] = read-out: pIC50 1b Replicon (converted)
# [6] = read-out: pIC50 1a Replicon (converted)
Compound,IC50 ([1]; read-out: HCV IC50 1b Replicon),"IC50 [1, 5]",HCV TD50 Replicon [2],"Papp at 2 h, 10 µM [3]",IC50 ([4]; read-out: HCV IC50 Elisa 1a),"IC50 [4, 6]"
"COC(=O)N[C@H](CC(C)C)C(=O)N1CCC[C@H]1c1ncc(-c2ccc(-c3ccc(C(=O)Nc4ccc(CN5CCS(=O)(=O)CC5)cc4)cc3)cc2)[nH]1 [Example 15, Methyl N-[(1R)-1-[(2S)-2-[5-[4-[4-[[4-[(1,1-dioxo-1,4-thiazinan-4-yl)methyl]phenyl]carbamoyl]phenyl]phenyl]-1H-imidazol-2-yl]pyrrolidine-1-carbonyl]-3-methyl-butyl]carbamate]",3.84 nM,3.8 nM,>25 µM,0.3 ×10⁻⁶ cm/s,,
"COC(=O)N[C@@H](C(=O)N1CCC[C@H]1c1ncc(-c2ccc(-c3ccc(C(=O)Nc4ccc(CN5CCS(=O)(=O)CC5)cc4)cc3)cc2)[nH]1)C(C)C [Example 13, Methyl N-[(1R)-1-[(2S)-2-[5-[4-[4-[[4-[(1,1-dioxo-1,4-thiazinan-4-yl)methyl]phenyl]carbamoyl]phenyl]phenyl]-1H-imidazol-2-yl]pyrrolidine-1-carbonyl]-2-methyl-propyl]carbamate]",42.2 nM,41.7 nM,>25 µM,0.3 ×10⁻⁶ cm/s,,
"COC(=O)N[C@H](C(=O)N1CCC[C@@H]1c1ncc(-c2ccc(-c3ccc(C(=O)Nc4ccc(CN5CCS(=O)(=O)CC5)cc4)cc3)cc2)[nH]1)C(C)(C)C [Example 22, Methyl N-[(1S)-1-[(2R)-2-[5-[4-[4-[[4-[(1,1-dioxo-1,4-thiazinan-4-yl)methyl]phenyl]carbamoyl]phenyl]phenyl]-1H-imidazol-2-yl]pyrrolidine-1-carbonyl]-2,2-dimethyl-propyl]carbamate]",266 nM,263 nM,,0.55 ×10⁻⁶ cm/s,,
"COC(=O)N[C@@H](C)C(=O)N1CCC[C@H]1c1ncc(-c2ccc(-c3cccc(C(=O)Nc4ccc(CN5CCS(=O)(=O)CC5)cc4)c3)cc2)[nH]1 [Example 29, Methyl N-[(1S)-2-[(2S)-2-[5-[4-[3-[[4-[(1,1-dioxo-1,4-thiazinan-4-yl)methyl]phenyl]carbamoyl]phenyl]phenyl]-1H-imidazol-2-yl]pyrrolidin-1-yl]-1-methyl-2-oxo-ethyl]carbamate]",33.4 nM,33.1 nM,>25 µM,,7620 nM,7590 nM
"COC(=O)N[C@@H](C)C(=O)N1CCC[C@@H]1c1ncc(-c2ccc(-c3ccc(C(=O)Nc4ccc(CN5CCS(=O)(=O)CC5)cc4)cc3)cc2)[nH]1 [Example 21, Methyl N-[(1S)-2-[(2R)-2-[5-[4-[4-[[4-[(1,1-dioxo-1,4-thiazinan-4-yl)methyl]phenyl]carbamoyl]phenyl]phenyl]-1H-imidazol-2-yl]pyrrolidin-1-yl]-1-methyl-2-oxo-ethyl]carbamate]",418 nM,417 nM,,1.4 ×10⁻⁶ cm/s,,
"COC(=O)N[C@@H](C)C(=O)N1CCC[C@H]1c1ncc(-c2ccc(-c3ccc(C(=O)Nc4ccc(CN5CCS(=O)(=O)CC5)cc4)cc3)cc2)[nH]1 [Example 4, Methyl N-[(1S)-2-[(2S)-2-[5-[4-[4-[[4-[(1,1-dioxo-1,4-thiazinan-4-yl)methyl]phenyl]carbamoyl]phenyl]phenyl]-1H-imidazol-2-yl]pyrrolidin-1-yl]-1-methyl-2-oxoethyl]carbamate]",1.18 nM,1.17 nM,22.44 µM,,25.9 nM,25.7 nM
"CN(C)[C@@H](C(=O)N1CCOC[C@H]1c1ncc(-c2ccc(-c3ccc(C(=O)Nc4ccc(CN5CCS(=O)(=O)CC5)cc4)cc3)cc2)[nH]1)c1ccccc1 [Example 49, 4-[4-[2-[(3R)-4-[(2R)-2-(dimethylamino)-2-phenyl-acetyl]morpholin-3-yl]-1H-imidazol-5-yl]phenyl]-N-[4-[(1,1-dioxo-1,4-thiazinan-4-yl)methyl]phenyl]benzamide]",0.88 nM,0.891 nM,19.7 µM,,77.8 nM,77.6 nM
"COC(=O)N[C@@H](CO)C(=O)N1CCC[C@H]1c1ncc(-c2ccc(-c3ccc(C(=O)Nc4ccc(CN5CCS(=O)(=O)CC5)cc4)cc3)cc2)[nH]1 [Example 11, Methyl N-[(1S)-2-[(2S)-2-[5-[4-[4-[[4-[(1,1-dioxo-1,4-thiazinan-4-yl)methyl]phenyl]carbamoyl]phenyl]phenyl]-1H-imidazol-2-yl]pyrrolidin-1-yl]-1-(hydroxymethyl)-2-oxo-ethyl]carbamate]",1.13 nM,1.12 nM,>21 µM,,19 nM,19.1 nM
"COC(=O)N[C@H](C(=O)N1CCC[C@H]1c1ncc(-c2ccc(-c3cccc(C(=O)Nc4ccc(CN5CCS(=O)(=O)CC5)cc4)c3)cc2)[nH]1)c1ccccc1 [Example 30, Methyl N-[(1S)-2-[(2S)-2-[5-[4-[3-[[4-[(1,1-dioxo-1,4-thiazinan-4-yl)methyl]phenyl]carbamoyl]phenyl]phenyl]-1H-imidazol-2-yl]pyrrolidin-1-yl]-2-oxo-1-phenyl-ethyl]carbamate]",1.2 nM,1.2 nM,>25 µM,,2480 nM,2450 nM
"COC(=O)N[C@H](C(=O)N1CCC[C@H]1c1ncc(-c2ccc(-c3cccc(C(=O)Nc4ccc(CN5CCS(=O)(=O)CC5)cc4)c3)cc2)[nH]1)C(C)C [Example 28, Methyl N-[(1S)-1-[(2S)-2-[5-[4-[3-[[4-[(1,1-dioxo-1,4-thiazinan-4-yl)methyl]phenyl]carbamoyl]phenyl]phenyl]-1H-imidazol-2-yl]pyrrolidine-1-carbonyl]-2-methyl-propyl]carbamate]",7.32 nM,7.24 nM,>25 µM,,2080 nM,2090 nM
